According to paper PMC9862586, “3-(Adenosylthio)benzoic Acid Derivatives as SARS-CoV-2 Nsp14 Methyltransferase Inhibitors” (Molecules, 2023):

Legend:
Assay in all cases: HTRF methyltransferase assay (SAM to SAH)
Assay type in all cases: biochemical
[1] = molecular target: T1, human glycine N-methyltransferase (hGNMT) (Homo sapiens, UniProt Q14749)
T1 construct: gene GNMT; commercial protein (MyBioSource); homotetramer by known biology
T1 sequence (Q14749 2-295): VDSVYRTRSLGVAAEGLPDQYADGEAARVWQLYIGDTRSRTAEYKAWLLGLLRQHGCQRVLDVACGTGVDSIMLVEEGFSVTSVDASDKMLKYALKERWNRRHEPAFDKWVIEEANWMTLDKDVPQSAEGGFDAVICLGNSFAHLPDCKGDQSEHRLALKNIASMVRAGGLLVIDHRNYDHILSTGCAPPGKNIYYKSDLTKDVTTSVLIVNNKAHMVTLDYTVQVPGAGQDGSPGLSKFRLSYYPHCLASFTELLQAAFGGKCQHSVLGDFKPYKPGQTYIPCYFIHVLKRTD
Description: HTRF methyltransferase assay (SAM to SAH) on human glycine N-methyltransferase (hGNMT)

[2] = molecular target: T2, SARS-CoV-2 nsp14 guanine-N7-methyltransferase (Severe acute respiratory syndrome coronavirus 2, UniProt P0DTD1)
T2 construct: gene rep
Description: HTRF methyltransferase assay (SAM to SAH) on SARS-CoV-2 nsp14 guanine-N7-methyltransferase

nsp16/nsp10 = molecular target: T3, nsp16/nsp10 (Severe acute respiratory syndrome coronavirus 2, UniProt P0DTD1); conditions: read-out: SARS-CoV-2 / nsp16/nsp10, IC50
T3 construct: gene rep
Description: HTRF methyltransferase assay (SAM to SAH) on nsp16/nsp10

| Structure (SMILES) | IC50 [1] | IC50 [2] | IC50 (nsp16/nsp10) |
| --- | --- | --- | --- |
| Nc1ncnc2c1ncn2[C@@H]1O[C@H](CSCc2ccc(C(=O)O)cc2)[C@@H](O)[C@H]1O [5a, 4-(((Adenosyl)thio)methyl)benzoic acid] | 400 ± 40 nM | 500 ± 30 nM | 1450 ± 70 nM |
| CS(=O)(=O)Nc1cccc(CSC[C@H]2O[C@@H](n3cnc4c(N)ncnc43)[C@H](O)[C@@H]2O)c1 [5c, N-(3-(((Adenosyl)thio)methyl)phenyl)methanesulfonamide] | 250 ± 20 nM | 280 ± 20 nM | 480 ± 30 nM |
| Nc1ncnc2c1ncn2[C@@H]1O[C@H](CSCc2cccc(CC(=O)O)c2)[C@@H](O)[C@H]1O [5d, 2-(3-(((Adenosyl)thio)methyl)phenyl)acetic acid] | 400 ± 30 nM | 680 ± 30 nM | 1840 ± 90 nM |
| Nc1ncnc2c1ncn2[C@@H]1O[C@H](CSCc2cccc(O)c2)[C@@H](O)[C@H]1O [5e, 5′-(((3-Hydroxy)benzyl)thio)-5′-deoxyadenosine] | 600 ± 30 nM | – | – |
| Nc1ncnc2c1ncn2[C@@H]1O[C@H](CSCc2cccc(CO)c2)[C@@H](O)[C@H]1O [5f, 5′-(((3-Hydroxymethyl)benzyl)thio)-5′-deoxyadenosine] | 1200 ± 100 nM | 740 ± 40 nM | – |
| N#Cc1cccc(CSC[C@H]2O[C@@H](n3cnc4c(N)ncnc43)[C@H](O)[C@@H]2O)c1 [5g, 3-(((Adenosyl)thio)methyl)benzonitrile] | 724 ± 58 nM | 351 ± 28 nM | – |
| Nc1ncnc2c1ncn2[C@@H]1O[C@H](CSCc2cccc(-c3nn[nH]n3)c2)[C@@H](O)[C@H]1O [5h, 5′-((3-(Tetrazolyl)benzyl)thio)-5′-deoxyadenosine] | 220 ± 9 nM | 340 ± 12 nM | – |
| CS(=O)(=O)c1cccc(CSC[C@H]2O[C@@H](n3cnc4c(N)ncnc43)[C@H](O)[C@@H]2O)c1 [5i, 5′-((3-(Methylsulfonyl)benzyl)thio)-5′-deoxyadenosine] | 250 ± 20 nM | 270 ± 20 nM | – |
| CNS(=O)(=O)c1cccc(CSC[C@H]2O[C@@H](n3cnc4c(N)ncnc43)[C@H](O)[C@@H]2O)c1 [5j, 3-(((Adenosyl)thio)methyl)-N-methylbenzenesulfonamide] | 350 ± 17 nM | 400 ± 19 nM | – |
| COC(=O)c1cccc(CSC[C@H]2O[C@@H](n3cnc4c(N)ncnc43)[C@H](O)[C@@H]2O)c1 [5k, Methyl 3-(((adenosyl)thio)methyl)benzoate] | 870 ± 50 nM | 1350 ± 70 nM | – |
| CNC(=O)c1cccc(CSC[C@H]2O[C@@H](n3cnc4c(N)ncnc43)[C@H](O)[C@@H]2O)c1 [5l, 3-(((Adenosyl)thio)methyl)-N-methylbenzamide] | 2780 ± 130 nM | 2790 ± 140 nM | – |
| Nc1ncnc2c1ncn2[C@@H]1O[C@H](CSCc2ccc(Cl)c(C(=O)O)c2)[C@@H](O)[C@H]1O [5m, 5-(((Adenosyl)thio)methyl)-2-chlorobenzoic acid] | 6.6 ± 0.3 nM | 7.7 ± 0.4 nM | – |
| Nc1ncnc2c1ncn2[C@@H]1O[C@H](CSCc2ccc(F)c(C(=O)O)c2)[C@@H](O)[C@H]1O [5n, 5-(((Adenosyl)thio)methyl)-2-fluorobenzoic acid] | 6.1 ± 0.3 nM | 16 ± 2 nM | – |
| Nc1ncnc2c1ncn2[C@@H]1O[C@H](CSCc2cc(Cl)cc(C(=O)O)c2)[C@@H](O)[C@H]1O [5o, 3-(((Adenosyl)thio)methyl)-5-chlorobenzoic acid] | 15 ± 0.7 nM | 24 ± 1.2 nM | – |
| Nc1ncnc2c1ncn2[C@@H]1O[C@H](CSCc2cc(C(=O)O)cc(-c3ccccc3)c2)[C@@H](O)[C@H]1O [5p, 5-(((Adenosyl)thio)methyl)-[1,1′-biphenyl]-3-carboxylic acid] | 0.97 ± 0.05 nM | 0.58 ± 0.03 nM | – |
| Nc1ncnc2c1ncn2[C@@H]1O[C@H](CSCc2ccc(-c3ccccc3)c(C(=O)O)c2)[C@@H](O)[C@H]1O [5r, 4-(((Adenosyl)thio)methyl)-[1,1′-biphenyl]-2-carboxylic acid] | 10 ± 0.5 nM | 36 ± 1.8 nM | – |
| Nc1ncnc2c1ncn2[C@@H]1O[C@H](CSCc2cc(C(=O)O)cc(-c3ccc(O)cc3)c2)[C@@H](O)[C@H]1O [5t, 5-(((Adenosyl)thio)methyl)-4′-hydroxy-[1,1′-biphenyl]-3-carboxylic acid] | 4.5 ± 0.2 nM | 4.2 ± 0.2 nM | – |
| Nc1ncnc2c1ncn2[C@@H]1O[C@H](CSCc2cc(C#CCO)cc(C(=O)O)c2)[C@@H](O)[C@H]1O [5v, 3-(((Adenosyl)thio)methyl)-5-(3-hydroxyprop-1-yn-1-yl)benzoic acid] | 9.8 ± 0.5 nM | 12 ± 0.6 nM | – |
| Nc1ncnc2c1ncn2[C@@H]1O[C@H](CSc2ccc(Cl)c(C(=O)O)c2)[C@@H](O)[C@H]1O [10a, 2-Chloro-5-((adenosyl)thio)benzoic acid] | 13 ± 2 nM | 20 ± 2 nM | 30 ± 4 nM |
| Nc1ncnc2c1ncn2[C@@H]1O[C@H](CSc2cc(C(=O)O)ccc2Cl)[C@@H](O)[C@H]1O [10b, 4-Chloro-5-((adenosyl)thio)benzoic acid] | 330 ± 20 nM | 1300 ± 60 nM | 2300 ± 120 nM |
| Nc1ncnc2c1ncn2[C@@H]1O[C@H](CSc2ccc(Br)c(C(=O)O)c2)[C@@H](O)[C@H]1O [10c, 2-Bromo-5-((adenosyl)thio)benzoic acid] | 8.2 ± 0.4 nM | 24 ± 2 nM | – |
| COc1ccc(SC[C@H]2O[C@@H](n3cnc4c(N)ncnc43)[C@H](O)[C@@H]2O)cc1C(=O)O [10d, 2-Methoxy-5-((adenosyl)thio)benzoic acid] | 13 ± 0.6 nM | 17 ± 0.9 nM | – |
| Nc1ncnc2c1ncn2[C@@H]1O[C@H](CSc2ccc(-c3ccccc3)c(C(=O)O)c2)[C@@H](O)[C@H]1O [10e, 4-((Adenosyl)thio)-[1,1′-biphenyl]-2-carboxylic acid] | 24 ± 1 nM | 25 ± 2 nM | – |
| Nc1ncnc2c1ncn2[C@@H]1O[C@H](CSc2ccc(C(=O)O)c(-c3ccccc3)c2)[C@@H](O)[C@H]1O [10f, 5-((Adenosyl)thio)-[1,1′-biphenyl]-2-carboxylic acid] | 210 ± 10 nM | 420 ± 19 nM | – |
